Values joined by “and” are separate entries in the source; they are usually repeats but may differ in a detail not shown here. Equal values may be shown once.
Key:
[1] = test system: GST in the liver of Bonito; design: method as in Güller et al. 43; details: ref Güller et al. 43; cited from earlier work
[2] = test system: C. tarichi Pallas liver GST; assay: In vitro inhibition effect of metals on GST enzyme activity; assay type: biochemical, Chalcalburnus tarichi Pallas; details: for Inhibition type / Ki: GSH substrate, Lineweaver–Burk plots; for Ki: three metal concentrations, mean ± standard error of the mean; for IC50: purified liver GST, from Activity (%)–[metal ion] plots
Description: C. tarichi Pallas fish were obtained from Van Lake basin. The liver samples of C. tarichi Pallas were immediately removed and preserved for experimental studies according to the cold chain principles. The livers were sliced into small pieces and successfully lysed by a homogenizer in 50 mM Tris/HCl buffer (pH 7.2) containing 1 mM DTT, 1 mM PMSF and 1 mM EDTA. Homogenate was centrifuged twice at 4 °C and 20,000 × g for 60 min. The supernatant was used in subsequent analyses. For GST purification, we followed the procedure described in our previous study.
(§1) GST activity was measured with the method in our previous study using CDNB as the model substrate.
IC50 was defined as the concentration of the compound causing 50% inhibition, and it was calculated based on Activity (%)–[metal ion] plots for each metal. The Ki values and inhibition types were found using Lineweaver–Burk plots. For the Ki study, we selected 3 inhibitor concentrations and made activity measurements relative to the control values, and then we calculated 1 / S and 1 / V values and plotted Ki plots. Analysis of the data and drawing of graphs were realized using GraphPad Prism ver. 8 for Mac (GraphPad Software, La Jolla California USA). […] Differences between data sets were considered statistically significant when the p-value was less than 0.05.

[3] = test system: C. tarichi Pallas liver GST; assay: Kinetic analysis (Km, Vmax, Lineweaver–Burk plot) of liver GST with GSH and CDNB as cosubstrates; assay type: biochemical, Chalcalburnus tarichi Pallas; details: substrate of liver GST
Description: as §1
Bradford procedure was used for protein quantity. The optimal pH and ionic strength were determined based on the activity of the pure enzyme described in a previous study. The effects of temperature on GST activity were made spectrophotometrically at temperatures ranging from 0 to 80 °C as described in a previous study. Stable pH ranges were 5.5–8.0 and 7.0–9.0. The enzyme solution was mixed with the buffers at the corresponding pH values. The activities were assayed at every 24 h for 4 days. Different concentrations of GSH and CDNB were used as substrates to determine the Vmax and Km values of the GST enzyme. Vmax and Km values were determined based on the Lineweaver–Burk plot.

GST from turkey livers = test system: GST from turkey livers; design: method as in PMID 22989768; details: turkey liver GST; cited from earlier work
GST from muscle tissue = test system: GST from muscle tissue; design: method as in Aksoy et al. 15; details: ref Aksoy et al. 15; cited from earlier work
[4] = test system: GST from Lake Van fish gills; design: method as in PMID 25856719; details: Lake Van fish gill GST; cited from earlier work

| Compound | Effect on GST enzyme activity [1] | Inhibition type [2] | IC50 [2] | further results |
| --- | --- | --- | --- | --- |
| [Cr+2] [Cr^2+] | did not show any impact | – | – | – |
| [Fe+3] [Fe^3+] | did not show any impact | – | – | – |
| [Zn+2] [Zn^2+] | showed inhibitory effects | – | – | – |
| [Cd+2] [Cd^2+] | showed inhibitory effects | Competitive | 235 µM | Ki [2]: 117 ± 31 µM |
| N[C@@H](CCC(=O)N[C@@H](CS)C(=O)NCC(=O)O)C(=O)O [GSH] | – | – | – | Km [3]: 60 µM; Vmax [3]: 0.562 EU/mL and 0.56 EU/mL |
| O=[N+]([O-])c1ccc(Cl)c([N+](=O)[O-])c1 [CDNB] | – | – | – | Km [3]: 890 µM; Vmax [3]: 1.245 EU/mL and 1.25 EU/mL |
| [Co+2] [Co^2+] | – | Competitive | 446 µM | – |
| [Cu+2] [Cu^2+] | showed inhibitory effects | Competitive | 163 µM | Ki [2]: 49 ± 9 µM |
| [Ag+] [Ag^+] | showed inhibitory effects | Noncompetitive | 0.21 µM | Inhibitory effect on enzyme activity (GST from turkey livers): potent inhibitory effect; Inhibitory effect among all studied metal ions (GST from muscle tissue): best inhibitor; Inhibitory effect among the studied metal ions [4]: best inhibitory effect; Inhibitory effect among the studied metal ions ([2]; compared with Cu2+, Cd2+, Co2+): best inhibitory effect |
| [Pb+2] [Pb^2+] | did not show any impact | – | – | – |
